Experimental findings from PMC2854649 (Biochemical and biophysical research communications, 2009) are described below.

Data set [1] relates to CD1 mice. It is filed as in vivo, mouse. Particulars: for Percent Surviving: CD1 mice, survival recorded for 24 hrs.
Data set [2] deals with C57Bl/6J mice. It is filed as in vivo, mouse. Particulars: 2 mg in 200 μL saline via tail-vein injection, N=6.
Data set [3] concerns CD3+ human PBMCs. Description: Radiation-induced apoptosis. It is filed as cell-based. Particulars: CD3+ human PBMCs exposed to 20 Gy radiation, Figure 1.
The subject of data set [4] is male C57Bl/6 mice. In words: Post-exposure treatment after lethal total body irradiation. It is filed as in vivo, mouse. Particulars: 1 mg dose, data not shown.
In data set [5] the test system is primary human lymphocytes (PBMCs). In words: Cellular uptake and subcellular distribution of FITC-labeled peptides. It is filed as cell-based. The following applies: 5 μM fluorescein-labeled peptide, 1 h, RPMI with 10% FBS or serum-free PBS.

Read-outs that look alike come from different tables or passages of the source.

With “(d) ^1-Ac-RKKRR-Orn-RRR-COOH [TAT, reference compound]”, the “Percent Surviving” value is on record as 100% in data set [1] (2 mg i.p.) and 0% in data set [1] (5 mg i.p.).
Consider “(d) ^1-Ac-RKKRR-Orn-RRR-β-A-(l) ^1-SNRELVVDFLSYKLSQKGYS-COOH [TAT-BH4]”, for which, in data set [2], the “Time to death following injection” value lay in the range of 3 to 5 min. Further, the “Appearance of mice the following day” value in data set [1] (2 mg i.p.) is reported as “appeared normal”. Further, the “Percent Surviving” value in data set [1] (2 mg i.p.) amounted to 100%; in data set [1] (5 mg i.p.) it was 75%; in data set [1] (20 mg i.p.) it was 25%. The “Appearance of surviving mice the following day” value in data set [1] (5 mg or 20 mg i.p., necropsy: distended and edematous bowel, small necrotic foci) was “piloerection and distended abdomens”.
For “Ac-KKKRKV-β-A-(l) ^1-SNRELVVDFLSDKLSQKGDS-COOH [NLS-BH4i]”, in data set [3], the “Effect on radiation-induced apoptosis, in words” value is listed as “Neither TAT-BH4i nor NLS-BH4i had any appreciable effect”.
The same measure, in the same setting: to “(d) ^1-Ac-RKKRR-Orn-RRR-β-A-(l) ^1-SNRELVVDFLSDKLSQKGDS-COOH [TAT-BH4i]” belongs “Neither TAT-BH4i nor NLS-BH4i had any appreciable effect”.
Take “Ac-KKKRKV-β-A-(l) ^1-SNRELVVDFLSYKLSQKGYS-COOH [NLS-BH4]”: the “Radiation-induced lymphocyte apoptosis in vivo (pilot study)” value in data set [4] was “significantly attenuated radiation-induced lymphocyte apoptosis”. Moreover, the “Percent Surviving” value in data set [1] (2 mg i.p.), in data set [1] (10 mg i.p.) and in data set [1] (30 mg i.p.) was 100% throughout. For the same substance, the “Tolerability of i.p. injections” value in data set [1] (2, 5, or 0 mg i.p., N = 3 mice per group) was “without any apparent ill effects”. Moreover, the “Uptake by PBMCs (fluorescence intensity, flow cytometry)” value in data set [5] is reported as “less dependent on the presence of serum”.
